The values below come from US8785463B2, “GPR 119 agonists” (Cadila Healthcare Limited, priority 2010, dated 2014).

For this assay, the target named is T1, human GPR 119 receptor (Homo sapiens, UniProt Q8TDV5).
T1 construct: expressed in transfected cells
T1 sequence (Q8TDV5 1-335): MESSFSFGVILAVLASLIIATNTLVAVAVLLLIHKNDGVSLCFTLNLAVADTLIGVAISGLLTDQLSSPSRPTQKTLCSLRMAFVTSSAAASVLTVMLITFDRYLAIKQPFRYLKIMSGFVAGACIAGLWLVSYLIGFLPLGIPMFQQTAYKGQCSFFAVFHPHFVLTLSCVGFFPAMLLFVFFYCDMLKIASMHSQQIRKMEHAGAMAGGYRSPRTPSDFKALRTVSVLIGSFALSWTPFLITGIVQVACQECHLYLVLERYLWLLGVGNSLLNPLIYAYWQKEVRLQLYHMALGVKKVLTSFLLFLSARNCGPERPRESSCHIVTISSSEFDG
Description: cAMP assay in stable cell line expressing recombinant human GPR 119 receptor. Type of assay: cell-based. As to conditions: DMSO = 1. The text has this:
A stable cell line expressing recombinant human GPR 119 receptor was established and used to investigate the efficacy of the compounds of the invention based on the intracellular levels of cyclic AMP (cAMP) using commercially available cAMP kits.
Background: Cyclic AMP is a second messenger, typically raised through Gs and lowered through Gi signalling.

As for `CCOC(=O)N1CCC(Oc2cc(Oc3cccc(/C=C4\SC(=O)NC4=O)c3)ncn2)CC1` [Example 51, (Z)-Ethyl 4-((6-(3-((2,4-dioxothiazolidin-5-ylidene)methyl)phenoxy)pyrimidin-4-yl)oxy)piperidine-1-carboxylate], the “Fold increase in cyclic AMP with respective to DMSO” value (“Fold increase in cyclic AMP” for short) amounted to 0.79 fold (10 nM compound), 1.25 fold (100 nM compound) and 2.81 fold (1 uM compound).
For `Cc1c(OCC2CCCN2C(=O)OC(C)(C)C)ncnc1Oc1ccc(/C=C2\SC(=O)NC2=O)cc1` (stereo not drawn) [Example 18, (Z)-tert-Butyl 2-(((6-(4-((2,4-dioxothiazolidin-5-ylidene)methyl)phenoxy)-5-methylpyrimidin-4-yl)oxy)methyl)pyrrolidine-1-carboxylate], the “Fold increase in cyclic AMP” value reads like this: (10 nM compound) 1.50 fold; (100 nM compound) 2.57 fold; (1 uM compound) 4.03 fold.
With `Cc1c(Oc2cccc(/C=C3\SC(=O)NC3=O)c2)ncnc1OC1CCN(c2ncccn2)CC1` [Example 28, (Z)-5-(3-((5-Methyl-6-((1-(pyrimidin-2-yl)piperidin-4-yl)oxy)pyrimidin-4-yl)oxy)benzylidene)thiazolidine-2,4-dione], the “Fold increase in cyclic AMP” value was 1.32 fold (10 nM compound), 2.86 fold (100 nM compound) and 4.56 fold (1 uM compound).
On the same counts, the results for `O=C1NC(=O)/C(=C/c2cccc(Oc3cc(OC4CCN(c5ncccn5)CC4)ncn3)c2)S1` [Example 42, (Z)-5-(3-((6-((1-(Pyrimidin-2-yl)piperidin-4-yl)oxy)pyrimidin-4-yl)oxy)benzylidene)thiazolidine-2,4-dione] are 0.65 fold, 1.27 fold and 3.10 fold.
In the case of `COc1cc(/C=C2\SC(=O)NC2=O)ccc1Oc1cc(OC2CCN(C(=O)OC(C)(C)C)CC2)ncn1` [Example 40, (Z)-tert-Butyl 4-((6-(4-((2,4-dioxothiazolidin-5-ylidene)methyl)-2-methoxyphenoxy)pyrimidin-4-yl)oxy)piperidine-1-carboxylate], the “Fold increase in cyclic AMP” value by setting is: (10 nM compound) 0.87 fold; (100 nM compound) 1.21 fold; (1 uM compound) 1.66 fold.
On the same counts, the results for `COc1cc(/C=C2\SC(=O)NC2=O)ccc1Oc1ncnc(OC2CCN(C(=O)OC(C)(C)C)CC2)c1C` [Example 8, (Z)-tert-Butyl 4-((6-(4-((2,4-dioxothiazolidin-5-ylidene)methyl)-2-methoxyphenoxy)-5-methylpyrimidin-4-yl)oxy)piperidine-1-carboxylate] are 0.52 fold, 0.85 fold and 1.67 fold.
The like results for `CCN1C(=O)S/C(=C\c2ccc(Oc3cc(OC4CCN(C(=O)OC(C)(C)C)CC4)ncn3)cc2)C1=O` [Example 31, (Z)-tert-Butyl 4-((6-(4-((3-ethyl-2,4-doxothiazolidin-5-ylidene)methyl)phenoxy)pyrimidin-4-yl)oxy)piperidine-1-carboxylate] were, in that order, 1.06 fold, 2.27 fold and 3.66 fold.
On the same counts, the results for `Cc1c(Oc2cccc(/C=C3\SC(=O)NC3=O)c2)ncnc1OC1CCN(C(=O)OCC(C)C)CC1` [Example 22, (Z)-iso-Butyl 4-((6-(3-((2,4-dioxothiazolidin-5-ylidene)methyl)phenoxy)-5-methylpyrimidin-4-yl)oxy)piperidine-1-carboxylate] are 0.95 fold, 1.82 fold and 1.66 fold.
Turning to `COC(=O)N1CCC(Oc2ncnc(Oc3cccc(/C=C4\SC(=O)N(C(C)C)C4=O)c3)c2C)CC1` [Example 32, (Z)-Methyl 4-((6-(3-((3-isopropyl-2,4-dioxothiazolidin-5-ylidene)methyl)phenoxy)-5-methylpyrimidin-4-yl)oxy)piperidine-1-carboxylate], the “Fold increase in cyclic AMP” value worked out at 0.77 fold (10 nM compound), 0.94 fold (100 nM compound) and 1.45 fold (1 uM compound).
With `CC(C)c1noc(N2CCC(Oc3cc(Oc4ccc(/C=C5\SC(=O)NC5=O)cc4)ncn3)CC2)n1` [Example 10, (Z)-5-(4-((6-((1-(3-iso-Propyl-1,2,4-oxadiazol-5-yl)piperidin-4-yl)oxy)pyrimidin-4-yl)oxy)benzylidene)thiazolidine-2,4-dione], the “Fold increase in cyclic AMP” value by setting is: (10 nM compound) 1.14 fold; (100 nM compound) 2.30 fold; (1 uM compound) 5.06 fold.
On the same counts, the results for `Cc1c(Oc2ccc(/C=C3\SC(=O)NC3=O)cc2)ncnc1OC1CCN(C(=O)OCc2ccccc2)CC1` [Example 13, (Z)-Benzyl 4-((6-(4-((2,4-dioxothiazolidin-5-ylidene)methyl)phenoxy)-5-methylpyrimidin-4-yl)oxy)piperidine-1-carboxylate] are 0.61 fold, 0.63 fold and 1.42 fold.
On to `Cc1c(Oc2cccc(/C=C3\SC(=O)NC3=O)c2)ncnc1OC1CCN(Cc2ccccc2)CC1` [Example 27, (Z)-5-(3-((6-((1-Benzylpiperidin-4-yl)oxy)-5-methylpyrimidin-4-yl)oxy)benzylidene)thiazolidine-2,4-dione], for which the “Fold increase in cyclic AMP” value (10 nM compound) came to 1.38 fold, the “Fold increase in cyclic AMP” value (100 nM compound) came out at 2.89 fold and the “Fold increase in cyclic AMP” value (1 uM compound) is recorded as 4.79 fold.
On the same counts, the results for `COC(=O)N1CCC(Oc2ncnc(Oc3cccc(/C=C4\SC(=O)NC4=O)c3)c2C)CC1` [Example 21, (Z)-Methyl 4-((6-(3-((2,4-dioxothiazolidin-5-ylidene)methyl)phenoxy)-5-methylpyrimidin-4-yl)oxy)piperidine-1-carboxylate] are 0.92 fold, 1.06 fold and 2.35 fold.
Take `CC(C)(C)OC(=O)N1CCC(Oc2cc(Oc3ccc(/C=C4\SC(=O)N(S(C)(=O)=O)C4=O)cc3)ncn2)CC1` [Example 24, (Z)-tert-Butyl 4-((6-(4-((3-(methylsulfonyl)-2,4-dioxothiazolidin-5-ylidene)methyl)phenoxy)pyrimidin-4-yl)oxy)piperidine-1-carboxylate]: the “Fold increase in cyclic AMP” value was determined as 1.07 fold (10 nM compound), 1.11 fold (100 nM compound) and 2.27 fold (1 uM compound).
With `Cc1c(Oc2ccc(/C=C3\SC(=O)NC3=O)cc2)ncnc1OC1CCN(C(=O)OC(C)C)CC1` [Example 16, (Z)-iso-Propyl 4-((6-(4-((2,4-dioxothiazolidin-5-ylidene)methyl)phenoxy)-5-methylpyrimidin-4-yl)oxy)piperidine-1-carboxylate], the “Fold increase in cyclic AMP” value runs as follows: (10 nM compound) 1.91 fold; (100 nM compound) 2.54 fold; (1 uM compound) 3.17 fold.
With `CCOC(=O)N1CCC(Oc2cc(Oc3ccc(/C=C4\SC(=O)NC4=O)cc3)ncn2)CC1` [Example 52, (Z)-Ethyl 4-((6-(4-((2,4-dioxothiazolidin-5-ylidene)methyl)phenoxy)pyrimidin-4-yl)oxy)piperidine-1-carboxylate], the “Fold increase in cyclic AMP” value stood at 1.15 fold (10 nM compound), 1.94 fold (100 nM compound) and 3.36 fold (1 uM compound).
As to `COC(=O)N1CCC(Oc2cc(Oc3cccc(/C=C4\SC(=O)NC4=O)c3)ncn2)CC1` [Example 36, (Z)-Methyl 4-((6-(3-((2,4-dioxothiazolidin-5-ylidene)methyl)phenoxy)pyrimidin-4-yl)oxy)piperidine-1-carboxylate], the “Fold increase in cyclic AMP” value turned out to be 0.80 fold (10 nM compound), 1.38 fold (100 nM compound) and 2.19 fold (1 uM compound).
Regarding `O=C1NC(=O)/C(=C/c2ccc(Oc3cc(OC4CCN(Cc5ccccc5)CC4)ncn3)cc2)S1` [Example 37, (Z)-5-(4-((6-((1-Benzylpiperidin-4-yl)oxy)pyrimidin-4-yl)oxy)benzylidene)thiazolidine-2,4-dione], the “Fold increase in cyclic AMP” value (10 nM compound) is 0.97 fold, the “Fold increase in cyclic AMP” value (100 nM compound) was 1.47 fold and the “Fold increase in cyclic AMP” value (1 uM compound) is recorded as 2.07 fold.
On the same counts, the results for `CC(C)(C)OC(=O)N1CCC(Oc2cc(Oc3cccc(/C=C4\SC(=O)NC4=O)c3)ncn2)CC1` [Example 19, (Z)-tert-Butyl 4-((6-(3-((2,4-dioxothiazolidin-5-ylidene)methyl)phenoxy)pyrimidin-4-yl)oxy)piperidine-1-carboxylate] are 1.31 fold, 1.92 fold and 4.24 fold.
